Earlier results as cited in patent publication US20260108515A1, “A RAPIDLY DISINTEGRATING TABLET OF ROSUVASTATIN AND ITS PROCESS OF PREPARATION” (NOVUMGEN LIMITED, priority 2022, published 2026).

Experiments:
[1] = molecular target: CYP3A4 (Homo sapiens, UniProt P08684)
[2] = test system: high-density lipoprotein—Cholesterol; settings: patients with raised triglyceride levels
[3] = high permeability and low solubility
[4] = in vivo

Sequence of CYP3A4 (P08684 whole entry): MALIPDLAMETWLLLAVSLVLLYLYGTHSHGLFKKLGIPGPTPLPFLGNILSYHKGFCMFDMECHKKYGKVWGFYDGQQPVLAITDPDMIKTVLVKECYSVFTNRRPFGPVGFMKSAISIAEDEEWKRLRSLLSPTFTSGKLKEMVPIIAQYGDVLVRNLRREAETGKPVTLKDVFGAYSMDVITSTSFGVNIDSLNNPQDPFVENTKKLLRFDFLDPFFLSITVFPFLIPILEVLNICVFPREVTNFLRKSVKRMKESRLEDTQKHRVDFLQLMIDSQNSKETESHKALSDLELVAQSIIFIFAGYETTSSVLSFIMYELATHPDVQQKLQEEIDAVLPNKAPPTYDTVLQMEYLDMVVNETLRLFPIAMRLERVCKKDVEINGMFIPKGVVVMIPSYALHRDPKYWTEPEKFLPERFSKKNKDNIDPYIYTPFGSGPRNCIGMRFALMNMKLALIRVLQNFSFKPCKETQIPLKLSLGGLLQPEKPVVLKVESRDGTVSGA

metabolizing isoenzyme [1]: metabolized primarily by CYP3A4
biopharmaceutics classification system (BCS) class [3]: class II
plasma half-life [4]: 18 to 24 h
SMILES: CC(C)c1nc(N(C)S(C)(=O)=O)nc(-c2ccc(F)cc2)c1/C=C/[C@@H](O)C[C@@H](O)CC(=O)O [Rosuvastatin, (E,3R,5S)-7-[4-(4-fluorophenyl)-2-[methyl(methylsulfonyl)amino]-6-propan-2-ylpyrimidin-5-yl]-3,5-dihydroxyhept-6-enoic acid]
raises high-density lipoprotein—Cholesterol [2]: 15-20%
